Results: the supplement of paper PMC11208160

assay: recombinant UMI read abundance after kanamycin selection (control-corrected) (log10(CPM+1)); higher = more efficient recombination; extreme values may be limits of the assay; sequences stand for … in AGTGCAGAGAAAATCGGCCAGTTTTCTCTGCCTGCAGTCCGCATGCCGTGGGACCCCTTGGGTTCTAACCTGTTGCCTAGATTTATGCAGCGGACTGCCTTTCTCCCAAAGTGATAAACCGG…AGGTTGGTTTCACT; site = the 11-nt donor
Summary of the method: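 After plating on IPTG (0.07 mM) plus kanamycin, or unselected, in two replicates, recombinant UMIs were PCR-amplified across the donor–target junction and sequenced. The cells were Escherichia coli co-electroporated with a UMI-tagged donor and donor-binding-loop pair library and a target plasmid with a fixed target and T7-inducible IS621 bridge recombinase. Values are log10(CPM+1), with CPM averaged over replicates and scaled by control-derived factors.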
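Also: IS621 bridge recombinase in Escherichia coli cells against a fixed T5 target plasmid.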

Sequence	recombinant UMI read abundance (log10)
GATACGTCATGGACCGGTTTTCCCGGTAATCCGTATTTGTT (site GATACGTCTAA)	0.338
GATACGTCATGGACCGGTTTTCCCGGTAATCCGTATTTGTT (site GCTACGTCTAA)	0.00442
GATACGTCATGGACCGGTTTTCCCGGTAATCCGTATTTGTT (site GGTACGTCTAA)	0.0473
GATACGTCATGGACCGGTTTTCCCGGTAATCCGTATTTGTT (site GTTACGTCTAA)	0.0167
GATAGATCATGGACCGGTTTTCCCGGTAATCCGTATTTGAG (site GATAGATCTCT)	1.83
GATCATCCATGGACCGGTTTTCCCGGTAATCCGTATTTGCT (site GATAATCCTAG)	0
GATCATCCATGGACCGGTTTTCCCGGTAATCCGTATTTGCT (site GATCATCCTAG)	0.452
GATCATCCATGGACCGGTTTTCCCGGTAATCCGTATTTGCT (site GATGATCCTAG)	0
GATCATCCATGGACCGGTTTTCCCGGTAATCCGTATTTGCT (site GATTATCCTAG)	0
GATCCAACATGGACCGGTTTTCCCGGTAATCCGTATTTGTA (site GATCCAACTTA)	0.0155
GATCCAACATGGACCGGTTTTCCCGGTAATCCGTATTTGTA (site GCTCCAACTTA)	0.00727
GATCCAACATGGACCGGTTTTCCCGGTAATCCGTATTTGTA (site GGTCCAACTTA)	0.021
GATCCAACATGGACCGGTTTTCCCGGTAATCCGTATTTGTA (site GTTCCAACTTA)	0.0286
GATCCGTCATGGACCGGTTTTCCCGGTAATCCGTATTTGTA (site GATCCGTCTTA)	1.26
GATCGCTCATGGACCGGTTTTCCCGGTAATCCGTATTTGTT (site GATCGCTCTAA)	0.523
GATCTGCCATGGACCGGTTTTCCCGGTAATCCGTATTTGAA (site GATCTGCCTTT)	0.00302
GATGAAACATGGACCGGTTTTCCCGGTAATCCGTATTTGCC (site GATGAAACTGG)	1.72
GATGGGACATGGACCGGTTTTCCCGGTAATCCGTATTTGAC (site GATAGGACTGT)	1.69
GATGGGACATGGACCGGTTTTCCCGGTAATCCGTATTTGAC (site GATCGGACTGT)	0.285
GATGGGACATGGACCGGTTTTCCCGGTAATCCGTATTTGAC (site GATGGGACTGT)	2.75
GATGGGACATGGACCGGTTTTCCCGGTAATCCGTATTTGAC (site GATTGGACTGT)	0
GATGTAACATGGACCGGTTTTCCCGGTAATCCGTATTTGCT (site AATGTAACTAG)	1.24
GATGTAACATGGACCGGTTTTCCCGGTAATCCGTATTTGCT (site CATGTAACTAG)	1.31
GATGTAACATGGACCGGTTTTCCCGGTAATCCGTATTTGCT (site GATGTAACTAG)	1.83
GATGTAACATGGACCGGTTTTCCCGGTAATCCGTATTTGCT (site TATGTAACTAG)	1.83

Sequence	recombinant UMI read abundance (log10)
GATGTATCATGGACCGGTTTTCCCGGTAATCCGTATTTGCA (site GATGTATCTTG)	2.3
GATGTTCCATGGACCGGTTTTCCCGGTAATCCGTATTTGGT (site GATGTTCCTAC)	0.0188
GATGTTCCATGGACCGGTTTTCCCGGTAATCCGTATTTGGT (site GCTGTTCCTAC)	0.00282
GATGTTCCATGGACCGGTTTTCCCGGTAATCCGTATTTGGT (site GGTGTTCCTAC)	0
GATGTTCCATGGACCGGTTTTCCCGGTAATCCGTATTTGGT (site GTTGTTCCTAC)	0.00388
GATTAGACATGGACCGGTTTTCCCGGTAATCCGTATTTGCT (site TTGCTCCCTGT)	0
GATTATCCATGGACCGGTTTTCCCGGTAATCCGTATTTGAT (site GATTATCCTAA)	0.0183
GATTATCCATGGACCGGTTTTCCCGGTAATCCGTATTTGAT (site GATTATCCTAC)	0.0054
GATTATCCATGGACCGGTTTTCCCGGTAATCCGTATTTGAT (site GATTATCCTAG)	0
GATTATCCATGGACCGGTTTTCCCGGTAATCCGTATTTGAT (site GATTATCCTAT)	0
GATTATCCATGGACCGGTTTTCCCGGTAATCCGTATTTGGT (site GATTATCCTAA)	0.017
GATTATCCATGGACCGGTTTTCCCGGTAATCCGTATTTGGT (site GATTATCCTAC)	0.0163
GATTATCCATGGACCGGTTTTCCCGGTAATCCGTATTTGGT (site GATTATCCTAG)	0
GATTATCCATGGACCGGTTTTCCCGGTAATCCGTATTTGGT (site GATTATCCTAT)	0
GATTATCCATGGACCGGTTTTCCCGGTAATCCGTATTTGTT (site GATTATCCTAA)	0.00783
GATTATCCATGGACCGGTTTTCCCGGTAATCCGTATTTGTT (site GATTATCCTAC)	0
GATTATCCATGGACCGGTTTTCCCGGTAATCCGTATTTGTT (site GATTATCCTAG)	0
GATTATCCATGGACCGGTTTTCCCGGTAATCCGTATTTGTT (site GATTATCCTAT)	0
GATTGAACATGGACCGGTTTTCCCGGTAATCCGTATTTGAC (site GATTGAACTGT)	0
GATTGAACATGGACCGGTTTTCCCGGTAATCCGTATTTGAC (site GATTGCACTGT)	0.00522
GATTGAACATGGACCGGTTTTCCCGGTAATCCGTATTTGAC (site GATTGGACTGT)	0.339
GATTGAACATGGACCGGTTTTCCCGGTAATCCGTATTTGAC (site GATTGTACTGT)	0
GATTGTACATGGACCGGTTTTCCCGGTAATCCGTATTTGCG (site GATTGTACTCG)	0.619
GATTGTACATGGACCGGTTTTCCCGGTAATCCGTATTTGGG (site GATTGTACTCC)	0.0205
GATTGTCCATGGACCGGTTTTCCCGGTAATCCGTATTTGAT (site GATTGTCCTAT)	1.17

Sequence	recombinant UMI read abundance (log10)
GATTTTCCATGGACCGGTTTTCCCGGTAATCCGTATTTGCT (site GATTATCCTAG)	0
GATTTTCCATGGACCGGTTTTCCCGGTAATCCGTATTTGCT (site GATTCTCCTAG)	0
GATTTTCCATGGACCGGTTTTCCCGGTAATCCGTATTTGCT (site GATTGTCCTAG)	0.014
GATTTTCCATGGACCGGTTTTCCCGGTAATCCGTATTTGCT (site GATTTTCCTAG)	0
GCAAAGCCATGGACCGGTTTTCCCGGTAATCCGTATTTGGG (site GCAAAGCCTCC)	0.00379
GCAAAGCCATGGACCGGTTTTCCCGGTAATCCGTATTTGGG (site GCCAAGCCTCC)	0.00875
GCAAAGCCATGGACCGGTTTTCCCGGTAATCCGTATTTGGG (site GCGAAGCCTCC)	0.00619
GCAAAGCCATGGACCGGTTTTCCCGGTAATCCGTATTTGGG (site GCTAAGCCTCC)	0.0133
GCAACATCATGGACCGGTTTTCCCGGTAATCCGTATTTGCC (site GCAACATCTGG)	0.611
GCAAGAACATGGACCGGTTTTCCCGGTAATCCGTATTTGAG (site GCAAGAACTCT)	2.56
GCAATAACATGGACCGGTTTTCCCGGTAATCCGTATTTGGT (site GCAATAACTAC)	2.38
GCAATCGCATGGACCGGTTTTCCCGGTAATCCGTATTTGAG (site GCAATCGCTCT)	2.29
GCACAGCCATGGACCGGTTTTCCCGGTAATCCGTATTTGTT (site GCACAGCCTAA)	1.47
GCACCAACATGGACCGGTTTTCCCGGTAATCCGTATTTGCC (site GCACCAACTGG)	0.762
GCACCGACATGGACCGGTTTTCCCGGTAATCCGTATTTGAA (site GCACCGACTTT)	0.965
GCACGAACATGGACCGGTTTTCCCGGTAATCCGTATTTGTC (site ACACGAACTGA)	1.48
GCACGAACATGGACCGGTTTTCCCGGTAATCCGTATTTGTC (site CCACGAACTGA)	2.19
GCACGAACATGGACCGGTTTTCCCGGTAATCCGTATTTGTC (site GCACGAACTGA)	2.56
GCACGAACATGGACCGGTTTTCCCGGTAATCCGTATTTGTC (site TCACGAACTGA)	0.552
GCACGTGCATGGACCGGTTTTCCCGGTAATCCGTATTTGGC (site GCACGTGCTGC)	2.23
GCACTCTCATGGACCGGTTTTCCCGGTAATCCGTATTTGGG (site GCACTCTCTCC)	0.647
GCAGAGTCATGGACCGGTTTTCCCGGTAATCCGTATTTGTA (site GCAGAGTCTTA)	3.17
GCAGATCCATGGACCGGTTTTCCCGGTAATCCGTATTTGTC (site GCAGATCCTGA)	0
GCAGCGTCATGGACCGGTTTTCCCGGTAATCCGTATTTGGA (site GCAGCGTCTTC)	2.37
GCAGGCCCATGGACCGGTTTTCCCGGTAATCCGTATTTGCC (site GCAGGCCCTGG)	0.86
